Reference: patent US10369138B2, “Monobactam organic compounds for the treatment of bacterial infections” (Novartis AG, priority 2014, dated 2019)
In brackets after ≈: the same amount, converted by molar mass. Where two headings read alike, the source gives them in different places.

Key:
[1] = test system: E. coli strain 25922; test: MIC by broth microdilution, E. coli strain 25922; assay type: cell-based
Method in brief: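 CLSI broth microdilution in cation-adjusted Mueller-Hinton broth, inoculum about 5×10^5 CFU/mL, 10% DMSO from the diluted series, 20 h at 35-37° C. MIC is the lowest concentration preventing visible growth, read by eye and at 600 nm.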

[2] = test system: E. coli containing KPC-2; test: MIC by broth microdilution, E. coli containing KPC-2 (Ec KPC2 Iso); assay type: cell-based; details: Escherichia coli, read-out: Ec KPC2 Iso (MIC), E. coli containing KPC-2 (carbapenemase from Klebsiella pneumoniae)
Method in brief: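 Host E. coli BW25113 pspB carrying multicopy pBAD18-kan plasmid with constitutive TEM-promoter KPC-2 expression (periplasmic signal sequence); broth microdilution per CLSI in cation-adjusted Mueller-Hinton broth, inoculum ~5×10^5 CFU/mL, compounds twofold serially diluted from DMSO masters (10% DMSO in dilution series added).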

[3] = Escherichia coli, 25922, E. coli strain 25922, read-out: Ec 25922 (MIC)

For `CC(C)(O/N=C(\C(=O)N[C@@H]1C(=O)N(S(=O)(=O)O)[C@@H]1Cn1cc(CNC(=N)N)nn1)c1csc(N)n1)C(=O)O` [Example 45, 2-(((Z)-(1-(2-aminothiazol-4-yl)-2-(((2R,3S)-2-((4-(guanidinomethyl)-1H-1,2,3-triazol-1-yl)methyl)-4-oxo-1-sulfoazetidin-3-yl)amino)-2-oxoethylidene)amino)oxy)-2-methylpropanoic acid], the MIC ([1]; Escherichia coli, 25922, read-out: Ec 25922 (MIC)) was 0.5 mg/L (≈ 0.872 µM) and the MIC [2] was 0.5 mg/L (≈ 0.872 µM).
With `NCc1cnn(C[C@@H]2[C@H](NC(=O)/C(=N\OC3(C(=O)O)CC3)c3csc(N)n3)C(=O)N2S(=O)(=O)O)n1` [Example 19, 1-(((Z)-(2-(((2R,3S)-2-((4-(aminomethyl)-2H-1,2,3-triazol-2-yl)methyl)-4-oxo-1-sulfoazetidin-3-yl)amino)-1-(2-aminothiazol-4-yl)-2-oxoethylidene)amino)oxy)cyclopropanecarboxylic acid] the MIC [1, 3] was 0.25 mg/L (≈ 0.472 µM) and the MIC [2] was 0.25 mg/L (≈ 0.472 µM).
`CC(C)(O/N=C(\C(=O)N[C@@H]1C(=O)N(S(=O)(=O)O)[C@@H]1Cn1ncc(CNC=N)n1)c1csc(N)n1)C(=O)O` [Example 62, 2-(((Z)-(1-(2-aminothiazol-4-yl)-2-(((2R,3S)-2-((4-(formimidamidomethyl)-2H-1,2,3-triazol-2-yl)methyl)-4-oxo-1-sulfoazetidin-3-yl)amino)-2-oxoethylidene)amino)oxy)-2-methylpropanoic acid] showed an MIC [1, 3] of 0.5 mg/L (≈ 0.895 µM) and an MIC [2] of 2 mg/L (≈ 3.58 µM).
Work on `N=C(N)N(CCCN)Cc1cnn(C[C@@H]2[C@H](NC(=O)/C(=N\OC3(C(=O)O)CC3)c3csc(N)n3)C(=O)N2S(=O)(=O)O)n1` [Example 130, 1-(((Z)-(2-(((2R,3S)-2-((4-((1-(3-aminopropyl)guanidino)methyl)-2H-1,2,3-triazol-2-yl)methyl)-4-oxo-1-sulfoazetidin-3-yl)amino)-1-(2-aminothiazol-4-yl)-2-oxoethylidene)amino)oxy)cyclopropanecarboxylic acid] yielded an MIC [1, 3] of 1 mg/L (≈ 1.59 µM) and an MIC [2] of 2 mg/L (≈ 3.18 µM).
Molecule `CC(C)(O/N=C(\C(=O)N[C@@H]1C(=O)N(S(=O)(=O)O)[C@@H]1CN1C[C@@H](CNC(=N)N)OC1=O)c1csc(N)n1)C(=O)O` [Example 24, 2-(((Z)-(1-(2-aminothiazol-4-yl)-2-(((2R,3S)-2-(((R)-5-(guanidinomethyl)-2-oxooxazolidin-3-yl)methyl)-4-oxo-1-sulfoazetidin-3-yl)amino)-2-oxoethylidene)amino)oxy)-2-methylpropanoic acid] has an MIC [1, 3] of 0.25 mg/L (≈ 0.423 µM) and an MIC [2] of 1 mg/L (≈ 1.69 µM).
`C[C@@H]1CN(C[C@@H]2[C@H](NC(=O)/C(=N\OC(C)(C)C(=O)O)c3csc(N)n3)C(=O)N2S(=O)(=O)O)C(=O)O1` [Example 23, 2-(((Z)-(1-(2-aminothiazol-4-yl)-2-(((2R,3S)-2-(((R)-5-methyl-2-oxooxazolidin-3-yl)methyl)-4-oxo-1-sulfoazetidin-3-yl)amino)-2-oxoethylidene)amino)oxy)-2-methylpropanoic acid] showed an MIC [1, 3] of 2 mg/L (≈ 3.74 µM) and an MIC [2] of 1 mg/L (≈ 1.87 µM).
`CC(C)(O/N=C(\C(=O)N[C@@H]1C(=O)N(S(=O)(=O)O)[C@@H]1CN1C[C@@H](CO)OC1=O)c1csc(N)n1)C(=O)O` [Example 63, 2-(((Z)-(1-(2-aminothiazol-4-yl)-2-(((2R,3S)-2-(((S)-5-(hydroxymethyl)-2-oxooxazolidin-3-yl)methyl)-4-oxo-1-sulfoazetidin-3-yl)amino)-2-oxoethylidene)amino)oxy)-2-methylpropanoic acid] showed an MIC [1, 3] of 32 mg/L (≈ 58.1 µM) and an MIC [2] of 32 mg/L (≈ 58.1 µM).
`CC(C)(O/N=C(\C(=O)N[C@@H]1C(=O)N(S(=O)(=O)O)[C@@H]1Cn1cncn1)c1nsc(N)n1)C(=O)O` [Example 16, 2-(((Z)-(2-(((2R,3S)-2-((1H-1,2,4-triazol-1-yl)methyl)-4-oxo-1-sulfoazetidin-3-yl)amino)-1-(5-amino-1,2,4-thiadiazol-3-yl)-2-oxoethylidene)amino)oxy)-2-methylpropanoic acid] showed an MIC [1, 3] of 4 mg/L (≈ 7.94 µM) and an MIC [2] of 2 mg/L (≈ 3.97 µM).
